From patent US20030105010A1, “Crystals and structures of ArnB aminotransferases” (priority 2001, published 2003)

Columns and labels:
[1] = molecular target: T1, Salmonella typhimurium ArnB (Salmonella typhimurium, UniProt Q8ZNF3); assay: L-cycloserine inhibition of ArnB followed by cofactor absorbance spectrum; format: biochemical
T1 construct: made in house; host or cells: E. coli BL21 (DE3), vector pSB3 (modified pET26b)

[2] = molecular target: T1, Salmonella typhimurium ArnB; assay: ArnB aminotransfer half-reaction assay (absorbance of PMP/PLP cofactor forms at 340 nm / 430 nm); format: biochemical; conditions: for conversion of ArnB from the E-PLP form back to the E•PMP form by amino donor: excess amino acid, decrease at 430 nm and increase at 340 nm; for observed rate constant of aminotransfer from L-methionine to E-PLP ArnB: enzyme concentration 23 μM, L-methionine concentration 20 mM
Protocol: Aminotransfer half-reactions were measured at an enzyme concentration of 23 μM and substrates were added to a final concentration of 250 μM, unless otherwise indicated. Reaction progress was followed by moniotoring the absorbance maxima of the PMP or PLP cofactor forms at 340 nm or 430 nm, respectively. Resulting time courses were fit to eq. 1, describing a single-exponential decay,
Yobs=((Y0−Y∞)e^−kt)+Y∞ (Eq. 1),
where Yobs=observed signal, Y0=signal at time zero, Y∞=signal at infinite time, k is the apparent first-order rate constant, and t is time. Nonlinear least-squares fits were performed with Kaleidagraph v3.51 (Synergy Software, Reading, Pa.).

ArnB from E. coli K12 = ArnB from E. coli K12 (Escherichia coli, UniProt P77690); conditions: compared with L-glutamate; cited from earlier work
ArnB from E. coli K12, sequence (P77690 whole entry): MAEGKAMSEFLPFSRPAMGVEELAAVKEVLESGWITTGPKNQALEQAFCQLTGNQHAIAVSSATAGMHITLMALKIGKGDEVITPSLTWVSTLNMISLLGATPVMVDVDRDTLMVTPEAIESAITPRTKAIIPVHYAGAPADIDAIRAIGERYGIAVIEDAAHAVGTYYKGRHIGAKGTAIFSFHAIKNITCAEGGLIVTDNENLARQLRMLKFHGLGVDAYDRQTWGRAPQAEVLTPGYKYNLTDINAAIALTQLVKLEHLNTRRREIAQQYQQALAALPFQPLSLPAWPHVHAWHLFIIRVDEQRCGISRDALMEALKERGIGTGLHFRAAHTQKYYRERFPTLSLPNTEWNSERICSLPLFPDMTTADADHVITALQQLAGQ

T1 sequence (Q8ZNF3 whole entry): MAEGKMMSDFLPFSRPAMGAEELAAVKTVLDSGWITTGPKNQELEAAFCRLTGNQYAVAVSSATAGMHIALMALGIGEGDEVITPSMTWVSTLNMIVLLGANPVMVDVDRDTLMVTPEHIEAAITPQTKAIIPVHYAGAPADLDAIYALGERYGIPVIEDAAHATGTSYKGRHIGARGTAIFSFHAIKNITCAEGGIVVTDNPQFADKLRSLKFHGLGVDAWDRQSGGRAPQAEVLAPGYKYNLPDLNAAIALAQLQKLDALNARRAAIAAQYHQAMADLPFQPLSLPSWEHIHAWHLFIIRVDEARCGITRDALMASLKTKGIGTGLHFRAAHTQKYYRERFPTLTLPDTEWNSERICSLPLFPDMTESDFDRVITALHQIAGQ

For N[C@H]1CONC1=O [L-cycloserine], the “reaction with ArnB in the E-PMP form” value ([1]; E-PMP enzyme form) was “did not react” and the “inactivation of E-PLP ArnB” value ([1]; excess L-cycloserine, loss of 430 nm internal aldimine peak, appearance of peak centered at 334 nm) was “rapidly inactivated”.
With O=C(O)CCCC(=O)C(=O)O [α-Ketoadipate] the “reduction in aminotransfer rate from that of α-ketoglutarate” value ([2]; E•PMP to E-PLP conversion, absorbance increase at 430 nm, α-ketoacid as amino acceptor substrate) was 3 fold.
With CSCC[C@H](N)C(=O)O [L-methionine] the “conversion of ArnB from the E-PLP form back to the E•PMP form by amino donor” value (from here on “conversion of ArnB”) [2] was “readily converted”, the “observed rate constant of aminotransfer from L-methionine to E-PLP ArnB” value ([2]; measured at 340 nm) was 0.065 ± 0.014 min⁻¹ and the “observed rate constant of aminotransfer from L-methionine to E-PLP ArnB” value ([2]; measured at 430 nm) was 0.051 ± 0.013 min⁻¹.
In the case of NC(=O)CC[C@H](N)C(=O)O [L-glutamine], the “use as amino donor substrate” value (ArnB from E. coli K12) is given as “less efficiently than with L-glutamate”.
With N[C@@H](CCC(=O)O)C(=O)O [L-glutamate] the “conversion of ArnB” value [2] was “fastest L-amino acid tested”.
In the case of N[C@@H](CC(=O)O)C(=O)O (single isomer, unassigned) [L-isomer of aspartic acid], the “conversion of ArnB” value [2] is reported as “slower rate than L-methionine”.
In the case of CSCC[C@@H](N)C(=O)O (single isomer, unassigned) [D-isomer of methionine], the “conversion of ArnB” value [2] is reported as “no such effect”.
